Assay results as given in PubChem BioAssay AID1963985 (Molecular Pharmacology Branch, DTP, NCI, 2024).

Tested on: 252836-082-R-J2-PDC tumor spheroids, viability
Experiment: Anticancer human tumor 252836-082-R-J2-PDC patient-derived head and neck squamous cell carcinoma cell line growth inhibition [PI3K]
Settings: spheroids with HUVEC and MSC; for IC50: curve of first compound; for viability, T/C: stronger effect = lower value
Method in brief: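 Stroma-containing spheroids: tumor line, pooled-donor HUVEC, hMSC. Treatments: targeted agents with PI3K inhibitors. Dosing: clinically relevant, half-log spacing, 10 microM ceiling without known Cmax. Read-out: cell viability.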
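Also: spheroids exposed to agents for seven days before readout.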
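For viability, T/C in this document: percent of vehicle DMSO control viability so 100% = untreated growth.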

CC(C)n1nc(-c2ccc3oc(N)nc3c2)c2c(N)ncnc21 + CC(Nc1ncnc2nc[nH]c12)c1cc2cccc(Cl)c2c(=O)n1-c1ccccc1 was tested, and the IC50 (second compound 0.0316 µM) was 47.5 nM, the IC50 (second compound 0.1 µM) was 37.1 nM and the IC50 (second compound 0.316 µM) was 34.1 nM. The IC50 (second compound 1 µM) was 32.5 nM, the IC50 (second compound 3.16 µM) was 21.5 nM and the IC50 (second compound 10 µM) was 11.1 nM. For the same compound, the viability, T/C (second compound 0.0316 µM, first compound 0.000316 µM) was 91.7%, the viability, T/C (second compound 0.0316 µM, first compound 0.001 µM) was 93.5% and the viability, T/C (second compound 0.0316 µM, first compound 0.00316 µM) was 89.5%. The viability, T/C (second compound 0.0316 µM, first compound 0.01 µM) was 95.5%, the viability, T/C (second compound 0.0316 µM, first compound 0.0316 µM) was 65.6% and the viability, T/C (second compound 0.0316 µM, first compound 0.1 µM) was 21.7%. The viability, T/C (second compound 0.1 µM, first compound 0.000316 µM) was 94.1%, the viability, T/C (second compound 0.1 µM, first compound 0.001 µM) was 97.9% and the viability, T/C (second compound 0.1 µM, first compound 0.00316 µM) was 71.1%. It also gave a viability, T/C (second compound 0.1 µM, first compound 0.01 µM) of 77.5%, a viability, T/C (second compound 0.1 µM, first compound 0.0316 µM) of 55.1% and a viability, T/C (second compound 0.1 µM, first compound 0.1 µM) of 24.2%. For the same compound, the viability, T/C (second compound 0.316 µM, first compound 0.000316 µM) was 95.3%, the viability, T/C (second compound 0.316 µM, first compound 0.001 µM) was 79% and the viability, T/C (second compound 0.316 µM, first compound 0.00316 µM) was 83.5%. For the same compound, the viability, T/C (second compound 0.316 µM, first compound 0.01 µM) was 87.4%, the viability, T/C (second compound 0.316 µM, first compound 0.0316 µM) was 52% and the viability, T/C (second compound 0.316 µM, first compound 0.1 µM) was 22.4%. The viability, T/C (second compound 1 µM, first compound 0.000316 µM) was 96%, the viability, T/C (second compound 1 µM, first compound 0.001 µM) was 88.6% and the viability, T/C (second compound 1 µM, first compound 0.00316 µM) was 83.5%. The viability, T/C (second compound 1 µM, first compound 0.01 µM) was 69.8%, the viability, T/C (second compound 1 µM, first compound 0.0316 µM) was 50.8% and the viability, T/C (second compound 1 µM, first compound 0.1 µM) was 22.7%. For the same compound, the viability, T/C (second compound 3.16 µM, first compound 0.000316 µM) was 79.2%, the viability, T/C (second compound 3.16 µM, first compound 0.001 µM) was 76.9% and the viability, T/C (second compound 3.16 µM, first compound 0.00316 µM) was 78.5%. The viability, T/C (second compound 3.16 µM, first compound 0.01 µM) was 64.2%, the viability, T/C (second compound 3.16 µM, first compound 0.0316 µM) was 42.8% and the viability, T/C (second compound 3.16 µM, first compound 0.1 µM) was 22%. It also gave a viability, T/C (second compound 10 µM, first compound 0.000316 µM) of 74.1%, a viability, T/C (second compound 10 µM, first compound 0.001 µM) of 60% and a viability, T/C (second compound 10 µM, first compound 0.00316 µM) of 68.1%. The viability, T/C (second compound 10 µM, first compound 0.01 µM) was 47%, the viability, T/C (second compound 10 µM, first compound 0.0316 µM) was 39.4% and the viability, T/C (second compound 10 µM, first compound 0.1 µM) was 18%.
